Measured values taken from US7491501B2, “Methods for identifying modulators of intracellular aggregate formation” (Auburn University, priority 2003, dated 2009).

Test system: 26S proteasome
Assay: In vitro deubiquitination assay of K63 polyubiquitinated tau with 26S proteasome
Assay type: biochemical
Conditions: Ub-H 1 or 10 μM, 26S proteasome 40 or 80 nM, 2 h 37° C.
Method: In Vitro Ubiquitination and Deubiquitination Assay—His-tagged tau construct was expressed in HEK 293 cells by calcium phosphate method. The cells were collected, washed with PBS and lysed with SDS lysis buffer. The lysate was immunoprecipitated with tau antibody and bound to secondary antibody coupled with agarose beads. Fifty microliters of the reaction buffer (50 mM Tris pH 7.5, 2.5 mM MgCl2, 2 mM DTT, 2 mM ATP) containing 100 ng El, 200 ng UbcH7 (E2), 100 μg TRAF6 (E3) and 5 μg of GST-WT Ub, or its mutants K29R, K48R, and K63R Ub was added to the immunoprecipitated tau. The beads were incubated at 37° C. for 2 h by continuous shaking, then washed three times with reaction buffer. The proteins were released by boiling for 2 min in SDS-PAGE sample buffer, electrophoresed on 7.5% SDS-PAGE and western blotted with antibody to ubiquitin and tau. For the in vitro deubiquitination assay, the ubiquitinated tau was treated with 26S proteasome (40 or 80 nM) in 30 μl of buffer containing 50 mM Tris-HCl, pH 7.5, 2 mM MgCl2, 2 mM ATP for 2 h at 37° C. The deubiquitination of tau by the 26S proteasome was blocked by the addition of ubiquitin aldehyde (Ub-H), an inhibitor of ubiquitin isopeptidases (1 or 10 μM). The samples were boiled in sample buffer, resolved by 7.5% SDS-PAGE and western blotted with anti-ubiquitin or anti-tau. […]

With ubiquitin aldehyde [Ub-H] the “polyubiquitin degradation (deubiquitination of tau) by 26S proteasome” value was “inhibited”.
